Values after ≈ are worked out from the molar mass of the structure shown. Read-outs that look alike come from different tables or passages of the source.
Legend:
[1] = test system: HuT 78; experiment: CCK-8 assay, HuT 78; type: cell-based; conditions: Homo sapiens, HuT78; leukaemia, ALL; CCK-8, 72 h
Method: (§1) Cells were seeded in 96-well plates at a density of 8 × 10^3 per well and exposed to different concentrations of compounds for 72 h. Subsequently, 10 µL CCK8 solution was added to each well and co-incubated for another 3–4 h at 37 °C. The absorbance was determined at 450 nm. Data was calculated with GraphPad Prism5 software.[32]

[2] = Kinetic solubility by nephelometry; type: physicochemical; conditions: kinetic from dmso stock, 1% DMSO
Method: Calculated physicochemical parameters. Physicochemical properties were calculated using the ChemAxon chemistry cartridge via JChem for Excel software (version 16.4.11). Compound 29e in DMSO was spiked into either pH 6.5 phosphate buffer or 0.01 M HCl (approximately pH 2.0) with the final DMSO concentration being 1%. After 30 min had elapsed, samples were analysed via Nephelometry to determine a solubility range.

[3] = test system: HUVEC; experiment: Toxicity on HUVEC; type: cell-based, human
[4] = Preliminary cytotoxicity study on zebrafish embryos; conditions: zebrafish, in vivo
[5] = test system: zebrafish embryos; experiment: as above; conditions: at the concentration of 6 µM
[6] = target: T1, tubulin colchicine binding site (Sus scrofa, UniProt P02550+P02554); experiment: [3H]colchicine-tubulin binding assay; conditions: compared with the positive control CA-4; Figure 4D
T1 construct: purchased Cytoskeleton, Inc
Method: One micromolar radiolabeled colchicine [ring C, Methoxy-3H] (Perkin-Elmer), 1% DMSO and various concentrations of test compounds in 50 µL G-PEM buffer containing 80 mmol/L PIPES (pH 6.8), 1 mmol/L EGTA, 1 mmol/L MgCl2 and 1 mmol/L GTP, and 5% glycerol were incu-bated with […] (> 99% pure; Cytoskeleton, Inc.; 0.2 mg/mL) at 37 °C for 60 min. The binding solutions were filtered through a stack of 2 DEAE-cellulose filters and washed twice. The radioactivity in the […] was determined by liquid scintillation spectrometry (Perkin-Elmer Wallac). Nonlinear regression was used to analyse the data using GraphPad Prism.

[7] = test system: MV4-11; experiment: CCK-8 assay, MV4-11; type: cell-based; conditions: Homo sapiens, leukaemia, AML, CCK-8, 72 h
Method: as §1

[8] = test system: HL60; experiment: CCK-8 assay, HL60; type: cell-based; conditions: Homo sapiens, HL-60; leukaemia, APL; CCK-8, 72 h
Method: as §1

[9] = test system: HUVEC; experiment: Transwell cell invasion experiment; type: cell-based, human; conditions: 0.1 µM to 10 µM, concentration-dependent
Method: The upper surface of Transwell membrane was precoated with 40 µL Matrigel gel and incubated for 45 min at 37 °C for gelling. Then, cells were trypsinized and seeded at 6х10^4 per upper chamber, and cultured in 1% foetal bovine serum medium containing different concentrations of compounds. The chamber was then placed in a 24-well plate to which 10% FBS had been added. After 48 h incubation at 37 °C, both chambers were washed with PBS three times, and then fixed with 4% paraformaldehyde for 15 min, followed by staining with crystal violet. The non-invasive cells on the upper surface membrane were wiped with cotton swabs. The image of the cells on the bottom face was recorded and quantified under an inverted microscope. The results were the means calculated from three replicates of each experiment.[37]

[10] = test system: transgenic zebrafish (FLK-1:EGFP); experiment: Zebrafish angiogenesis assay (ISVs); type: in vivo; conditions: for IC50: transgenic zebrafish, triplicate, mean ± SD, read-out: Zebrafish (antiangiogenic activity IC50)
Method: The transgenic flk: enhanced GFP zebrafish embryos were generated by pair-wise mating, collected and sorted into the 6-well plate (n = 30 per well) with 1 ml of aquaculture water (0.2 g/L of Instant Ocean Salt in distilled water) and raised at 28 °C. Then the embryos staged at 12 h post fertilisation (hpf) were treated with the indicated concentrations of compounds which were added into embryo water. About 30 embryos were screened for each concentration gradient. At 30hpf, the treated embryos were anaesthetised with 0.02% tricaine in embryo water and photographed. The numbers of ISVs were recorded under confocal microscopy. Results were obtained from three independent determinations and presented as mean ± SD.[38]

[11] = test system: K562 cell xenograft in zebrafish embryos; experiment: Zebrafish xenograft of K562 cells; type: in vivo; conditions: 2 µM and 6 µM, compared with the control group
Method: K562 cells were labelled with Red CMTPX according to the manufacturer’s protocol. Before the microinjections, Tg(flk:EGFP) embryos were kept at 28 °C and manually dechorionated few hours. At 48 hpf, 4 nL of cells suspension containing 400 labelled cells was microinjected into the yolk of anaesthetised embryos by a pneumatic pico pump (PV820, World Precision Instruments, USA). After injection, embryos were incubated to recover for at least 1 h at 28 °C, the embryos were distributed to 6-well plates with 20 embryos placed in each well. The injected xenografts were exposed to the indicated doses of compounds and maintained at 35 °C. DMSO (0.3%) was used as a vehicle control. The survival and development of the xenografted embryos was recorded every day until the end of experiment. At one day post injection (dpi), fluorescent microscopy was used to examine K562 cells size, death and migration in caudal region of anaesthetised zebrafish.

[12] = test system: K562 cells; experiment: Cell apoptosis assay by flow cytometry (Annexin V-PE/PI); type: cell-based; conditions: K562, 48 h; after treatment of 29e (control 5.95%); equals Q2+Q3 at 200 nM
Method: K562 cells at 8х10^4 cells/well were seeded in 12-well cell culture plates overnight and the cultured cells were incubated with a dose range of compounds 29e for 48 h. The treated or untreated cells were washed twice with PBS and stained by Annexin V-PE and PI for 15 min without light exposure according to the manufacturer’s protocol. Apoptosis was quantified using a flow cytometer ((Becton, Dickinson and Company, USA).[32]

[13] = In vitro metabolic stability, human liver microsomes; type: in vitro ADME; conditions: 0.4 mg/mL protein
Method: The metabolic stability assay was performed by incubating the test compound in mouse or human liver microsomes (XenoTech, lot no. 1510256) at 37 °C and a protein concentration of 0.4 mg/mL. Microsomal incubations were performed at a substrate concentration of 0.5 µM. Data analysis. Species scaling factors were used to convert the in vitro CLint(mL/min/mg) to an in vivo CLint(mL/min/kg).

T1 sequence (P02554 whole entry): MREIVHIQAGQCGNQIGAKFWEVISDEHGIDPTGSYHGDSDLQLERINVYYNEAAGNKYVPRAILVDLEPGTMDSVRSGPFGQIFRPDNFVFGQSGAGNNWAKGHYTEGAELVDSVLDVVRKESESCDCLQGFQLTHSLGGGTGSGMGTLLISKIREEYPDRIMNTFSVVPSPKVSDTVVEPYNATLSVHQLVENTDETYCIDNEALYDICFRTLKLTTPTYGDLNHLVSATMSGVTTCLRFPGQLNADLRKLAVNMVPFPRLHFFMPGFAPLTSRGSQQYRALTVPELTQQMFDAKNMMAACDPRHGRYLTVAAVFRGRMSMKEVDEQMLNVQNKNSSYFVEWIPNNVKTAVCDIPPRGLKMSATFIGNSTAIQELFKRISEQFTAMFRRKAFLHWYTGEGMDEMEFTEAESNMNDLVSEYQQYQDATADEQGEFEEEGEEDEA
T1 sequence (P02550 whole entry): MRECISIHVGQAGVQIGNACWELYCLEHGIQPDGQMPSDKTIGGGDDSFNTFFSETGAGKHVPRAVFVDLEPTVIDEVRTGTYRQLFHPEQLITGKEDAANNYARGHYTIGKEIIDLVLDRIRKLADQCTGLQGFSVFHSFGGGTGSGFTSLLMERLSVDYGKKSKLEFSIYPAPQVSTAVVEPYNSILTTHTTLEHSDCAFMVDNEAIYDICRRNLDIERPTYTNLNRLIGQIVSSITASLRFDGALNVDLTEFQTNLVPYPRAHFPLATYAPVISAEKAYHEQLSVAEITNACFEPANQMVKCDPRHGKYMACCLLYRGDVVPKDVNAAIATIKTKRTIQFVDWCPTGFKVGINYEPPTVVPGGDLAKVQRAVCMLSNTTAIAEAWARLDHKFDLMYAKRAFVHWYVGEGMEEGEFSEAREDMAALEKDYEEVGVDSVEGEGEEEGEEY

COc1cc(C(=O)/C=C/c2cn(S(=O)(=O)c3ccccc3)c3ccccc23)cc(OC)c1OC [Compound 29e, (E)-3–(1-(Phenylsulfonyl)-1H-indol-3-yl)-1–(3,4,5-trimethoxyphenyl)prop-2-en-1-one]
IC50 [1]: 0.26 ± 0.11 µM | solubility at 30 min ([2]; 0.01 M HCl, pH 2, simulated gastric fluid, 0.01 M HCl, read-out: Solubility pH 2.0): 25 to 50 µg/mL (≈ 52.4 to 105 µM) | solubility at 30 min ([2]; phosphate buffer, pH 6.5, aqueous buffer, phosphate buffer, read-out: Solubility pH 6.5): ≤ 150 µg/mL | IC50 ([3]; Homo sapiens, HUVEC): 58.6 µM | toxicity on HUVEC ([3]; at the concentration of 10 µM): did not cause any toxicity on HUVEC | IC50 [4]: 44.6 µM | toxicity on zebrafish embryos [5]: did not cause the toxicity | Effect on tubulin binding of [3H]colchicine [6]: efficiently bound to the [^3H]colchicine binding domain of tubulin | IC50 [7]: 0.25 ± 0.02 µM | IC50 [8]: 0.18 ± 0.002 µM | HUVEC invasion (Transwell) [9]: the number of HUVEC invasion decreased | Formation of intersegmental vessels (ISVs) in zebrafish embryos ([10]; 2.0 µM): efficiently blocked the formation of intersegmental vessels | Number and length of ISVs in zebrafish embryos ([10]; 6.0 µM): the number and length of ISVs completely decreased | IC50 ([10]; Danio rerio): 3.6 µM | IC50 [10]: 3.4 ± 0.3 µM | K562 fluorescence intensity and tumour area in zebrafish xenograft [11]: reduced intensities and decreased tumour area | percentage of apoptotic cell [12]: 45.81% | microsomal CLint at 0.5 µM [13]: 16 µL/min/mg | half-life at 0.5 µM ([13]; 37 °C, read-out: Degradation half-life Human): 35 min
